In patent US4882339A, “4-Amino-substituted 1,2-dihydroxynaphthalene derivatives useful in inhibiting 5-lipoxygenase activity in mammals” (Ciba-Geigy Corporation, priority 1987, dated 1989):
Read-outs that look alike come from different tables or passages of the source.

Key:
5-lipoxygenase [1] = biological target: T1, 5-lipoxygenase (Cavia porcellus, UniProt A0A286X958); assay: Inhibition of the synthesis of 5-HETE and LTB4 in A-23187-stimulated guinea pig polymorphonuclear leukocytes; type: cell-based; conditions: for IC50: in vitro
T1 construct: A-23187-stimulated guinea pig polymorphonuclear leukocytes; endogenous in cells; host or cells: guinea pig polymorphonuclear leukocytes
T1 sequence (A0A286X958 1-674): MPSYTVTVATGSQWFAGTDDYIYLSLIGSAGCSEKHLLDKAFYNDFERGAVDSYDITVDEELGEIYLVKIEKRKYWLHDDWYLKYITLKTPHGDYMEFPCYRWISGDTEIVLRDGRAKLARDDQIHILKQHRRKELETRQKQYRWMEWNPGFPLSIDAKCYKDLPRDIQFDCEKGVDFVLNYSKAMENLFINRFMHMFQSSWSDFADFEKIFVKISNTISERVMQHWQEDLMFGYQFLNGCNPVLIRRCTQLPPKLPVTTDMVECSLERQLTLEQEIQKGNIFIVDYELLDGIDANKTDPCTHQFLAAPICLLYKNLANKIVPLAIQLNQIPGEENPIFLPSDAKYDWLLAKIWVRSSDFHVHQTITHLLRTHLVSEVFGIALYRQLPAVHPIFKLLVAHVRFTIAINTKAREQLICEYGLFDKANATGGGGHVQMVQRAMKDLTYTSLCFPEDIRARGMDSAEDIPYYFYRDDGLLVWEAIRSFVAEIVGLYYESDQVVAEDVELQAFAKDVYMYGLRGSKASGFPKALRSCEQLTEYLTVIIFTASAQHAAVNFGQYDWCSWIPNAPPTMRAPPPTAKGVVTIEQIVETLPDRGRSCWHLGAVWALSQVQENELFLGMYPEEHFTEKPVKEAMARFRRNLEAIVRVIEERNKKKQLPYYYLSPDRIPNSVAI
Experimental: 5-Lipoxygenase inhibition is determined e.g. by measuring the percent inhibition of the synthesis of 5-HETE [(5S)-5-hydroxy-6,8,11,14-eicosa-tetraenoic acid] and leukotriene B4 (LTB4, 5,12-dihydroxy-6,8,10,14-eicosatetraenoic acid) in A-23187-stimulated guinea pig polymorphonuclear leukocytes, essentially according to radiometric thin-layer chromatogrpahic assays described by Walker and Dawson (J. Pharm. Pharmacol. 31: 778, 1979) and Jakschik and Lee (Nature 287: 51, 1980) used to measure the formation of 5-HETE and LTB4 -like products from ^14 C-arachidonic acid. IC50 values are determined graphically as the concentration of test compound at which the synthesis of 5-HETE and LTB4 -like products is reduced to 50% of their respective control values.

5-lipoxygenase [2] = assay: Ex vivo inhibition of 5-lipoxygenase (A-23187-stimulated LTB4 formation in whole blood), dog
Experimental: (§1) Furthermore the inhibition of 5-lipoxygenase in vivo is determined after oral or i.v. administration to rats or dogs by measuring ex vivo in whole blood the inhibition of A-23187-stimulated LTB4 formation as compared to non-treated control animals.

5-lipoxygenase [3] = assay: Ex vivo inhibition of 5-lipoxygenase (A-23187-stimulated LTB4 formation in whole blood), rat; conditions: about 10-100 mg/kg p.o.
Experimental: as §1

[4] = system: rat pleurisy model of inflammation; assay: Carrageenin-induced pleurisy model of inflammation in the rat; type: in vivo; conditions: 30 mg/kg p.o. b.i.d. for two days; 48 hours after carrageenin
[5] = In vivo metabolite identification after administration of 4-(N-methylcyclohexylamino)-1,2-diacetoxynaphthalene

Row | IC50 (5-lipoxygenase [1]; read-out: IC50 for inhibition of the formation of LTB4) | Compound | IC50 (5-lipoxygenase [1]; read-out: IC50 for LTB4 formation) | inhibition of the formation of 5-HETE and leukotriene B4 (5-lipoxygenase [1]; result in words) | inhibition of 5-lipoxygenase activity ex vivo (5-lipoxygenase [2]; 1 mg/kg i.v.) | inhibition of 5-lipoxygenase activity ex vivo (5-lipoxygenase [2]; 100 mg/kg p.o.) | inhibition of 5-lipoxygenase activity ex vivo (5-lipoxygenase [3]) | cell count of monocytes [4] | cell count of polymorphonuclear leukocytes [4] | exudate volume [4] | in vivo metabolite [5]
1 |  | CC(=O)Oc1cc(N(C)C2CCCCC2)c2ccccc2c1OC(C)=O [4-(N-methylcyclohexylamino)-1,2-diacetoxynaphthalene] | ~1000 nM | inhibits the formation of 5-HETE [(5S)-5-hydroxy-6,8,11,14-eicosa-tetraenoic acid] and leukotriene B4 | inhibits 5-lipoxygenase activity | inhibits 5-lipoxygenase activity | inhibits 5-lipoxygenase activity | lowers the cell count of polymorphonuclear leukocytes and of monocytes | lowers the cell count of polymorphonuclear leukocytes | causes inhibition of exudate volume | 
2 | ~500 nM | CN(C1=CC(=O)C(=O)c2ccccc21)C1CCCCC1 [4-(N-methylcyclohexylamino)-1,2-naphthoquinone] |  |  |  |  |  |  |  |  | identified as an in vivo metabolite of 4-(N-methylcyclohexylamino)-1,2-diacetoxynaphthalene
